From US7094760B2, “Peptides for treatment of inflammation and shock” (Salpep Biotechnology, Inc., priority 1996, dated 2006)

Columns and labels:
[1] = test system: endotoxin-induced fever in rats; assay: endotoxin-induced fever, Example 12; format: in vivo, rat; settings: late phase (180–420 minutes); injected immediately before ip 150 μg/kg LPS
Description: Rats were operated on to remove salivary glands (or controls were sham-operated) one week before challenge with endotoxin. At the time of operation, a temperature sensitive radio transmitter was inserted in the peritoneal cavity. One week after operation, baseline temperatures were recorded by telemetry and SGP-T or saline was injected immediately before intra-peritoneal injection of 150 μg/kg LPS. Temperature was followed for 12 hours. SGP-T suppressed a late phase (180–420 minutes) of endotoxin-induced fever.

[2] = test system: isolated jejunal segments from egg albumin-sensitised rats; assay: antigen-induced contraction of isolated jejunal segments, Examples 3 and 6; set-up: species or system rat
Description: SGP-T, at doses as low as 6.8×10^−7M, reduced antigen induced contractions of these isolated intestinal tissues by 60% (data not shown).
Analogues and fragments of SGP-T were tested for their ability to inhibit antigen (egg albumin)-induced intestinal contractions, using isolated jejunal segments from egg albumin-sensitised rats, as described in Example 3.

[3] = test system: ovalbumin-sensitized Hooded-Listar rats; assay: anaphylactic perturbation of intestinal motility, Example 9; format: in vivo, rat; settings: intravenously at 100 μg/kg, 20 min before challenge
Description: Animals and Tissue Preparation: Male Hooded-Listar rats were sensitized to egg albumin (ovalbumin; OA). Two weeks after sensitization, the animals had electrodes implanted into the muscle of the jejunum for recording muscle electrical activity. One week later, the fasted rats received SGP-T or an analogue, either intravenously (injection via penile vein under halothane anaesthesia) or orally (via gastric tube), 20 min before challenge with OA, or bovine serum albumin as control, by intragastric administration.
The disruption of intestinal migrating myoelectric complexes (MMCs) (Scott et al., (1988), J. Physiol., v. 255, pp. G505–511), a measure of intestinal activity, and the presence of diarrhea were used as biological measurements of anaphylaxis.

[4] = test system: rats sensitized to hen egg albumin; assay: intestinal anaphylaxis (diarrhoea, disrupted MMCs), egg albumin-sensitized rats, Example 3; format: in vivo, rat; settings: intravenously
From the text: SGP-T was also effective in preventing intestinal anaphylaxis.

[5] = test system: Sprague-Dawley rats sensitized with Nippostrongylys brasiliensis; assay: antigen-induced anaphylactic hypotension, Nippostrongylus brasiliensis-sensitized rats; format: in vivo, rat; settings: given 10 minutes prior to worm antigen (100 worm equivalents)
Description: The effect of SGP-T on antigen-induced anaphylactic hypotension was examined in Sprague-Dawley rats sensitized 5 weeks previously with the nematode parasite Nippostrongylys brasiliensis. Under pentobarbital anesthesia, worm antigen (100 worm equivalents) was injected and arterial blood pressure was followed for 1 hour.

[6] = test system: neutrophil influx into carrageenin-soaked sponge in rats; assay: neutrophil migration into carrageenin-soaked sponge; format: in vivo, rat
Description: The subcutaneous implantation of a carrageenin-soaked sponge in rats is a model used to evaluate agents that modulate neutrophil chemotaxis, as carrageein is a potent chemotactic agent and the sponge serves as a collecting reservoir.
Under halothane anaesthesia the sponge was removed from its subcutaneous site and the fluid was squeezed from it into a test tube. Following centrifugation at 2,000 g for 10 min, the exudate was decanted and the remaining cells were suspended in 4 ml of 0.9% saline, and their number determined using a Coulter Counter. One ml of the remaining cell suspension was extracted for use in the superoxide assay.
Intravenous injections of SGP-T inhibited neutrophil influx into a carrageenin-soaked sponge in a dose-dependent manner (FIG. 4). When the ability of neutrophils obtained from the carrageenin-soaked sponges to generate superoxide anion was evaluated, those obtained from saline-treated rats were totally refractory to f MLP and phorbol myristate acetate (PMA).

rat neutrophils = assay: superoxide anion production in vitro, rat neutrophils; format: cell-based
Description: Neutrophils (10^6) were suspended in PBS buffer of the following composition: NaCl 137 mM, KCl 2.7 mM, Na2HPO4, 8.1 mM, KH2PO4 1.47 mM, CaCl2 1.19 mM, MgCl2 0.54 mM, glucose 7.5 mM and cytochrome C 1.5 mM (Sigma Chemical Co. St. Louis, […].) incubated at 37 C. Each sample was read along with a reference sample containing 1440 units of superoxide dismutase (Sigma) in a spectrophotometer (Hitachi, U200 spectrophotometer). The rate of superoxide production in response to 10^−7M phorbol myristate acetate (PMA) or 10^−5 M N-formyl-methionyl-leucyl-phenylalanine (fMLP) was then inferred from the slope. (Derian et al., (1996), Biochemistry 35(4): 1265–9).
Neutrophils obtained either from carrageenin-soaked sponges implanted subcutaneously in rats, or from the blood of healthy human volunteers, were preincubated with various doses of SGP-T for 30 minutes, then stimulated with 10^−7M PMA and the rate of superoxide anion production determined. At doses less than 1 μM, SGP-T inhibited superoxide anion production by both rat and human neutrophils, although the rat neutrophils were approximately 10-fold less sensitive than human neutrophils to this inhibitor effect (FIG. 6). At higher doses of the peptide(>1 μM), an enhancement of superoxide anion production was evident with human neutrophils.
At 0.001 and 0.01 μM SGP-T, O2^− production was inhibited by 15 to 20% in human neutrophils, while 10-fold higher concentrations were required for such inhibition with rat neutrophils. Much higher concentrations of SGP-T (10 and 20 μM) stimulated O2^− production by human neutrophils. Each value is presented as the mean ±SEM, and the number of experiments was between 6 and 12.

Substance: NH2-Thr-Asp-Ile-Phe-Glu-Gly-Gly-COOH (H-TDIFEGG-OH) [SGP-T, submandibular gland peptide T, TDIFEGG]
- endotoxin-induced fever [1]: suppressed
- Biological Activity = inhibition of antigen-induced jejunal contraction by test peptide [2]: +++ (+++ = highest inhibition (~60%))
- reduction of antigen induced contractions of isolated intestinal tissues ([2]; doses as low as 6.8×10^−7M): 60%
- intestinal anaphylaxis induced by OA [3]: prevented or reduced
- manifestation of anaphylaxis ([4]; 100 μg/kg): totally prevented
- anaphylactic reactions (diarrhoea, disruption of MMCs) ([4]; doses as low as 10 μg/kg): significantly attenuated
- protection against anaphylactic hypotension [5]: dose-dependently protected
- neutrophil influx into a carrageenin-soaked sponge ([6]; intravenous injections): inhibited
- inhibition of neutrophil migration ([6]; rat, in vivo): approximately 50%
- superoxide anion production (rat neutrophils; doses less than 1 μM, 10^−7M PMA): inhibited
- sensitivity of rat neutrophils relative to human neutrophils (less sensitive) (rat neutrophils; inhibition of superoxide anion production): approximately 10 fold
- higher concentrations required for 15 to 20% inhibition versus human neutrophils (rat neutrophils; relative to 0.001 and 0.01 μM in human neutrophils): 10 fold
